Test results from ChEMBL document CHEMBL1201862, “PubChem BioAssay data set” (2004).
Active and inactive are the calls of the source.

Tests used:
[1] = target: T1, Leucine aminopeptidase (Plasmodium falciparum 3D7, UniProt Q8IL11); assay: P. falciparum M17LAP inhibitors, primary screen, biochemical, fluorogenic H-Leu-NHMec substrate, 1536-well (AID 1619); assay type: functional
T1 sequence (Q8IL11 whole entry): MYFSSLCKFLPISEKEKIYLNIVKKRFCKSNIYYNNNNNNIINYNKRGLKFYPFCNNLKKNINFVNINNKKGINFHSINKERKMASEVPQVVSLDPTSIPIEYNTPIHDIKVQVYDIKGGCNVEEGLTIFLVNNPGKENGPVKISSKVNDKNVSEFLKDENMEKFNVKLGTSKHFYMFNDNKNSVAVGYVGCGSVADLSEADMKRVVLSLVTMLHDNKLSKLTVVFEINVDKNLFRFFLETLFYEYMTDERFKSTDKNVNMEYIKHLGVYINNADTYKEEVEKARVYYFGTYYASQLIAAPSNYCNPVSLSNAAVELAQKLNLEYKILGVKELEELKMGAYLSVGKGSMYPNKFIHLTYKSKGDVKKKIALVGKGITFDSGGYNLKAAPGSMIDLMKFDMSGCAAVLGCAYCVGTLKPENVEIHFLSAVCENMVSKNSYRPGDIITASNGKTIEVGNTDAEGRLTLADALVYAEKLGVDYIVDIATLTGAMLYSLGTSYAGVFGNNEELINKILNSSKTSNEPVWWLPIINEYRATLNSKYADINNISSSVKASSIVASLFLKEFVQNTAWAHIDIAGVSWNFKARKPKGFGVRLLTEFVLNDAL

[2] = target: T2, High affinity choline transporter 1 (Homo sapiens, UniProt Q9GZV3); assay: human choline transporter blockers, potency – cell-based, 5-point CRC, membrane potential dye, dose response (AID 504840); assay type: functional
T2 sequence (Q9GZV3 whole entry): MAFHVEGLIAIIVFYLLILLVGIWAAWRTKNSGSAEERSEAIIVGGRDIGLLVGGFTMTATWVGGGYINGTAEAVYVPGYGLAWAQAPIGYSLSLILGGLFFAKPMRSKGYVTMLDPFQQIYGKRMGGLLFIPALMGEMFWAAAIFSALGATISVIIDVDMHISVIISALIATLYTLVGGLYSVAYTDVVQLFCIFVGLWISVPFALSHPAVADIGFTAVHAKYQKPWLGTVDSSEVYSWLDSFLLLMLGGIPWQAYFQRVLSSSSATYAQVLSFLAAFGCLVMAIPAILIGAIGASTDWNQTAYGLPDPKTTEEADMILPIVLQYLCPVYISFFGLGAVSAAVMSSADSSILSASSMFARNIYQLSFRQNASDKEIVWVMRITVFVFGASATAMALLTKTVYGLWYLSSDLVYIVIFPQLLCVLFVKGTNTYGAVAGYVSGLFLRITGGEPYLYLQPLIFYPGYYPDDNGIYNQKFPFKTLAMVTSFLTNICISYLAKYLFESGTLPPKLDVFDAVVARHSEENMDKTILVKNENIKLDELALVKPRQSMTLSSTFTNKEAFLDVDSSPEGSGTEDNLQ

[3] = target: T3, Short transient receptor potential channel 4 (Mus musculus, UniProt Q9QUQ5); assay: calcium entry via TRPC4 opening agents – cell-based, HEK293 TRPC4/mu-opioid, Fluo-4 calcium, dose response (AID 434937); assay type: functional
T3 sequence (Q9QUQ5 whole entry): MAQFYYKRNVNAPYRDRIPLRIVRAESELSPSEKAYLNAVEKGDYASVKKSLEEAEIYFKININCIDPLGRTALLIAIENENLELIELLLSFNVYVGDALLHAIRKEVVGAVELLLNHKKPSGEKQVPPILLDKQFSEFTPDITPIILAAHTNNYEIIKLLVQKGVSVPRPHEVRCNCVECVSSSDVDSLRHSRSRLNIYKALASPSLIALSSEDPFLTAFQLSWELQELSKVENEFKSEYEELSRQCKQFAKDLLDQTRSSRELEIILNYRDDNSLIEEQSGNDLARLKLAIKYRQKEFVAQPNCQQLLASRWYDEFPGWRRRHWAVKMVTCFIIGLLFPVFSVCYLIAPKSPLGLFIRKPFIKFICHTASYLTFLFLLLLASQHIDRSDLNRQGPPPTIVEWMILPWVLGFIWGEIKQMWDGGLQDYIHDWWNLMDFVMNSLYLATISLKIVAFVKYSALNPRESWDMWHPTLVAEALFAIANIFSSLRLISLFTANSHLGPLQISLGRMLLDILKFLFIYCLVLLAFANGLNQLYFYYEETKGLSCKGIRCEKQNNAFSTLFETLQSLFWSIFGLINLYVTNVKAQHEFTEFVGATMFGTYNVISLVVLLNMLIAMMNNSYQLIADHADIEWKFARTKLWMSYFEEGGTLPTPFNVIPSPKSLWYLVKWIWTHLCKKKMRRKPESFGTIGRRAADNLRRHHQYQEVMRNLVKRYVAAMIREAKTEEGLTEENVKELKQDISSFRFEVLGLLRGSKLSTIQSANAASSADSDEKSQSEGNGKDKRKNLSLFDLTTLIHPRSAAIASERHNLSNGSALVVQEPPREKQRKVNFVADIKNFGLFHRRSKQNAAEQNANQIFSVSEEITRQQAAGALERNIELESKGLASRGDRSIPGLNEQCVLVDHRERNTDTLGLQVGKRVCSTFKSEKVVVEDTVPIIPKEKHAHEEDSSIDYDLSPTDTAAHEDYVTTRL

[4] = MIN6 cell viability loss – mouse insulinoma, cytotoxicity control, dose response (AID 2122); assay type: functional;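 note: confirmatory high-throughput counterscreen run to flag cytotoxic compounds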
[5] = microbe, parasite or virus in culture; assay type: functional; conditions: Mycobacterium tuberculosis
[6] = decrease of insulin promoter-GFP reporter – imaging, high-content screening, mouse beta cells (AID 1628); assay type: functional; conditions: MIN6
[7] = loss of viability in HepG2 cells – cell-based, CellTiter-Glo, cherry-picked, cytotoxicity control for Shn3 inhibitor project, dose response (AID 624134); assay type: functional
[8] = Luminescence Cell-Based Dose Confirmation HTS to Identify Inhibitors of Platelet Dense Granule Release. [Related pubchem assays: 1663 (Primary HTS), 1678 (Summary of Project)]; assay type: functional
[9] = non-specific 3'UTR reporter inhibition in Clone20-Shn3RL – cell-based, Renilla luciferase, cherry-picked, counter-screen for Shn3 inhibitor project, dose response (AID 624133); assay type: functional
[10] = target: Luciferin 4-monooxygenase (Photinus pyralis, UniProt P08659); assay: inhibition of purified Photinus pyralis luciferase – biochemical, luminescence, dose response (AID 1891)
[11] = tested on: HEK293; assay: EBV LMP1 TES2 canonical NF-kB signalling blockers – cell-based, HEK293, luciferase, cherry-pick, dose response (AID 588343); assay type: functional; conditions: Homo sapiens
[12] = reduction of Shn3 3'UTR-driven luciferase in osteoblasts – cell-based, Clone20 osteoblasts, firefly luciferase, cherry-picked, dose response (AID 624132); assay type: functional;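 note: firefly luciferase luminescence from reporter carrying the Shn3 3'UTR in osteoblasts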
[13] = target: T4, Sentrin-specific protease 7 (Homo sapiens, UniProt Q9BQF6); assay type: functional;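 note: Luminescence-based dose-response confirmation of ultra-high-throughput screening hits, measuring inhibition of SENP7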
T4 sequence (Q9BQF6 whole entry): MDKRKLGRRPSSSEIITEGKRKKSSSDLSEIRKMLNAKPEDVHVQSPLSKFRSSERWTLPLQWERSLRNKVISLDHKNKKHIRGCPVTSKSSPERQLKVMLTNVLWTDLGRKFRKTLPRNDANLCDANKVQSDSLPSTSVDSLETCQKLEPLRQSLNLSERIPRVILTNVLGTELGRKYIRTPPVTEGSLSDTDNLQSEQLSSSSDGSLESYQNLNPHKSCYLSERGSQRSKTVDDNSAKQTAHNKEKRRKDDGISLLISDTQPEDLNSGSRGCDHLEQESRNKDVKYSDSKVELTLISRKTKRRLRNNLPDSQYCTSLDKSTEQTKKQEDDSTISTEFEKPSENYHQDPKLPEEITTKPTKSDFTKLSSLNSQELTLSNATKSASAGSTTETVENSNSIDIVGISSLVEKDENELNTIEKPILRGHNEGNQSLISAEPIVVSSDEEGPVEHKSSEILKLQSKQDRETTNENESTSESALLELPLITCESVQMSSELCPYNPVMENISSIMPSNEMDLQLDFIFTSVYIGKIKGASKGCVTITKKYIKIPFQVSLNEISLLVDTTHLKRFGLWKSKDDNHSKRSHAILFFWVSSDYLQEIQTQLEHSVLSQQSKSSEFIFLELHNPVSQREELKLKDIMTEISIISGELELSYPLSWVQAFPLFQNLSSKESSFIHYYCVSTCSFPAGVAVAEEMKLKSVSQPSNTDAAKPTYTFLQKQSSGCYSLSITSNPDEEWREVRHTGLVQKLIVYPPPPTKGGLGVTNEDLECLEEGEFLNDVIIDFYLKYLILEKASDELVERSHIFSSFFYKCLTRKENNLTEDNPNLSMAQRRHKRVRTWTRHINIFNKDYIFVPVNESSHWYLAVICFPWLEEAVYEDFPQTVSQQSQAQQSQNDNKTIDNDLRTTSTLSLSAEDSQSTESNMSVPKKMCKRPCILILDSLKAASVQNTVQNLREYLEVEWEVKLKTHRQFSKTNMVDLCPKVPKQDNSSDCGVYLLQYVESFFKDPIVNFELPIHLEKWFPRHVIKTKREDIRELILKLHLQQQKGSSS

[14] = target: T5, Sentrin-specific protease 8 (Homo sapiens, UniProt Q96LD8); assay type: functional;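 note: luminescence read-out of SENP8 inhibition, dose-response confirmation following an ultra-high-throughput screen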
T5 sequence (Q96LD8 whole entry): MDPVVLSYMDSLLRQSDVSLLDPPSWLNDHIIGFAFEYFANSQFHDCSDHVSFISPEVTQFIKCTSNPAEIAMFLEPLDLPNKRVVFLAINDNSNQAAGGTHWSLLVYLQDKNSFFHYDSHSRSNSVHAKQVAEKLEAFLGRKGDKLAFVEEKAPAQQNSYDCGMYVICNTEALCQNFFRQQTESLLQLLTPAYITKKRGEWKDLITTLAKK

[15] = target: T6, Sentrin-specific protease 6 (Homo sapiens, UniProt Q9GZR1); assay type: functional;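 note: Luminescence-based dose-response confirmatory assay of SENP6 inhibition, following up an ultra-high-throughput screen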
T6 sequence (Q9GZR1 whole entry): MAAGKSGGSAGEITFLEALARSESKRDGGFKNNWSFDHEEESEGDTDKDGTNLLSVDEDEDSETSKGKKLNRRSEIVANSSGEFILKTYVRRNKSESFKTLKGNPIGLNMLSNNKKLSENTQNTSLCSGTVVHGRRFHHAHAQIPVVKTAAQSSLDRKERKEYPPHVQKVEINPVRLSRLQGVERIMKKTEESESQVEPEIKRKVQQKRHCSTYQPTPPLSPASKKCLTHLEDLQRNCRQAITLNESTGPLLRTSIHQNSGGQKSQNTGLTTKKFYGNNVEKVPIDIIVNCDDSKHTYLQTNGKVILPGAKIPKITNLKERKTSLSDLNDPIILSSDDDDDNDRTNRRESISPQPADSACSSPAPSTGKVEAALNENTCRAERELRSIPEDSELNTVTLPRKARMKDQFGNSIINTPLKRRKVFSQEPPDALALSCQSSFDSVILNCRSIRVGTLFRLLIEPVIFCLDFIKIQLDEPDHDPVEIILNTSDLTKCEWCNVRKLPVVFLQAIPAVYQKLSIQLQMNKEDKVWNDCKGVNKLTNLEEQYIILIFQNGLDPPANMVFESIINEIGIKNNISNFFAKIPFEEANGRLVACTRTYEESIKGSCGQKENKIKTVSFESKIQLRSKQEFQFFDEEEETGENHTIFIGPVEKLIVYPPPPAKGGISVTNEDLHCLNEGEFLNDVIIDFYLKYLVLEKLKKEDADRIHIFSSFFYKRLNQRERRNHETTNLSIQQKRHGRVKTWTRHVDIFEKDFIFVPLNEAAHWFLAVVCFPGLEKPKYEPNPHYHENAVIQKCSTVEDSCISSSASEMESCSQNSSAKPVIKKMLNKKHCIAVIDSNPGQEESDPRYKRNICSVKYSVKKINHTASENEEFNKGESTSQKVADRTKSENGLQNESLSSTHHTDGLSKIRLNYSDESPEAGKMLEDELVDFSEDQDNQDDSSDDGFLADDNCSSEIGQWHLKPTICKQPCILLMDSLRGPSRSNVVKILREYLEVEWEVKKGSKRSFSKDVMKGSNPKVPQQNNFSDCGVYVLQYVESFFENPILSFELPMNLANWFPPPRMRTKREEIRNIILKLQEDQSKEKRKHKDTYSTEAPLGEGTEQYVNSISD

[16] = target: T7, Caspase-3 (Homo sapiens, UniProt P42574); assay type: functional;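 note: Dose-response selectivity test against caspase-3 for candidate inhibitors of sentrin-specific proteases (SENPs)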
T7 sequence (P42574 whole entry): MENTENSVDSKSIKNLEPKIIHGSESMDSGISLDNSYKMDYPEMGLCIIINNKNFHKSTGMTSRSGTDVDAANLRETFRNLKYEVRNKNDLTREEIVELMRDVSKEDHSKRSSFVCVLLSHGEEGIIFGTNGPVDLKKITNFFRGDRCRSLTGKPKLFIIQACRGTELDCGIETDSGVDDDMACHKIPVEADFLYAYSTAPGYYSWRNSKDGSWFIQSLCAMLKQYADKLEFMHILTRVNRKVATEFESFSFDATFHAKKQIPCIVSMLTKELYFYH

Chain of Luciferin 4-monooxygenase (P08659 whole entry): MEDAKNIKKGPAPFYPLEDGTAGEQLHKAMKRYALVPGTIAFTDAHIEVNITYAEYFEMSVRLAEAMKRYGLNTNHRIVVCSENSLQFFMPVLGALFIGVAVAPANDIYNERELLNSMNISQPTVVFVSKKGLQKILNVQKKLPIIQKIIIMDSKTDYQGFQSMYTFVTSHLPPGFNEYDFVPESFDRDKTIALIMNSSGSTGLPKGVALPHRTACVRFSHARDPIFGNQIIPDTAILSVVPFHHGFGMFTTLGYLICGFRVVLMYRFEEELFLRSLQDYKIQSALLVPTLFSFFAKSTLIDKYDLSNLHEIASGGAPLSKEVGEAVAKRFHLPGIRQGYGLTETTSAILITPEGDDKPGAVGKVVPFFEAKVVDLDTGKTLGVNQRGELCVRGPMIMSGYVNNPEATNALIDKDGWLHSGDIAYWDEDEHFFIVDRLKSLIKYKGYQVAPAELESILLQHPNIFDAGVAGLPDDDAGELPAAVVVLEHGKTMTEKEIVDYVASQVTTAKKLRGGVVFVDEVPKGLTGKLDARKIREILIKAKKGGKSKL

SMILES	IC50 [4]	IC50 [6]	IC50 [13]	IC50 [14]	IC50 [15]	IC50 [16]	further results
Cc1ccccc1C(=O)NNC(=S)NC(=O)c1ccccc1							IC50 [1]: 91.2 µM (active); IC50 [2]: 12.6 µM (active); EC50 [3]: 2.11 µM (active)
Brc1ccc2c(c1)C(OC1CN3CCC1CC3)c1ccccc1CS2 (stereo unspecified)	2.13 µM (active)	2.34 µM (active)					IC50 [2]: 16 µM (active); CC50 [5]: 13.1 µM (active)
CCc1ccc2c(c1)CCCN2C(=O)c1ccccc1C(=O)O	0.994 µM (active)	1.56 µM (active)					
Cn1c(=O)c2c(nc(NCc3ccco3)n2C/C=C/c2ccccc2)n(C)c1=O	< 0.25 µM (active)	0.41 µM (active)					AC50 [7]: 4.24 µM (active); EC50 [8]: 30 µM (active); AC50 [9]: 1.13 µM (active); EC50 [10]: > 112 µM (not active); AC50 [11]: 4.38 µM (active); AC50 [12]: 1.08 µM (active)
Cc1cc(-c2csc(Nc3ccccn3)n2)ccc1F			3.53 µM (active)	19.2 µM (active)	12.5 µM (active)	26 µM (active)	
O=C1/C(=C/c2ccc([N+](=O)[O-])cc2)CCc2ccccc21			0.696 µM (active)	1.13 µM (active)	0.789 µM (active)	5.9 µM (active)	EC50 [8]: 1.11 µM (active); EC50 [10]: 0.404 µM (active)
O=c1cc(-c2ccc(O)cc2)oc2ccc(O)cc12			9.8 µM (active)	11.6 µM (active)	87.7 µM (active)	16.8 µM (active)	
